Laboratory results from patent publication EP3733658B1, “PRENYLATED BENZOPYRANES AS PPAR AGONISTS” (Universitat de València, priority 2017, dated 2019).

How the values were obtained:
hPPARα = target: T1, hPPARα (Homo sapiens, UniProt Q07869); assay: PPAR/Gal4 chimera luciferase reporter transactivation assay in transiently transfected Cos-7 cells (hPPARα); format: cell-based
T1 sequence (Q07869 167-468): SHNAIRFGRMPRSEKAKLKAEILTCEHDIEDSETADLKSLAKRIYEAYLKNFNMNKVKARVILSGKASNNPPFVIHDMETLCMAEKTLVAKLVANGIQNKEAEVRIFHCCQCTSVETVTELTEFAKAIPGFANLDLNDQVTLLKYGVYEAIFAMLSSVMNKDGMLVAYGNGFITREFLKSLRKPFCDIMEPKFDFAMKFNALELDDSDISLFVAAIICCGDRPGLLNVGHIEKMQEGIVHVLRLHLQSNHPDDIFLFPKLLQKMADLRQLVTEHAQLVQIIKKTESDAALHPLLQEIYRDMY
Procedure: (§1) The cells were maintained under standard culture conditions (Dulbecco modified minimum essential Eagle medium, DMEM) supplemented with 10% fetal calf serum (FCS) at 37°C in 5% […] CO2 atmosphere. The medium was changed every 2 days. The Cos-7 cells were seeded in 60 mm discs at a density of 5.5 × 10^5 cells/disc in DMEM supplemented with 10% FCS and incubated at 37°C for 16 h before transfection. The cells were transfected in DMEM using jetPEI, with reporter (pG5-TK-pGL3) and expression (pGal4-h, hPPARα or hPPARγ) plasmids. The expression plasmid pCMV-β-galactosidase was cotransfected as a control for transfection efficacy. After 16 h the transfection was stopped adding DMEM supplemented with 10% FCS, and the cells were trypsinised and seeded in 96-well plates and incubated for 6 h in DMEM containing 10% FCS. Subsequently, the cells were incubated for 24 h in DMEM containing 0.2% FCS and increasing concentrations of the compounds or the vehicle (DMSO, maximum concentration 0.1%) were tested. Finally, the cells were washed once with PBS cooled on ice, lysed and the luciferase and β-galactosidase assays were performed.
(§2) To evaluate the compounds for PPAR transcriptional activity, the tests were conducted in a PPAR/Gal4 chimera of a human luciferase reporter gene to determine the maximum transactivation response of each compound.

hPPARγ = target: T2, hPPARγ (Homo sapiens, UniProt P37231); assay: PPAR/Gal4 chimera luciferase reporter transactivation assay in transiently transfected Cos-7 cells (hPPARγ); format: cell-based
T2 sequence (P37231 238-505): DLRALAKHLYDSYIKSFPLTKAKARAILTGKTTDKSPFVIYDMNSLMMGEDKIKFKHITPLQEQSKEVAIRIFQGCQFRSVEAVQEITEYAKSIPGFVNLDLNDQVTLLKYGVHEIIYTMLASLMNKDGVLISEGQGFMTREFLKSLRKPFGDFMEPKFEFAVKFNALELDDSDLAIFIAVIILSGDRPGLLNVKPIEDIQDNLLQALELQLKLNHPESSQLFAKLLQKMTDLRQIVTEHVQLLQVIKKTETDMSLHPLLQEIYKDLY
Procedure: as §1, §2

[1] = test system: mononuclear cell adhesion to HUVEC induced by TNFα; assay: Parallel flow chamber: mononuclear cell adhesion to TNFα-stimulated HUVEC; format: cell-based, human
Procedure: The parallel flow camera technique was used, which allows viewing cell adhesion under dynamic physiological flow conditions.
In the execution of this study, neutrophils and mononuclear cells were perfused through monolayers of HUVEC previously stimulated, or not, with TNFα (20 ng/mL) for 24 h. For this purpose, the neutrophils and human mononuclear cells were obtained in suspension from healthy volunteers by the Ficoll-Hypaque method, centrifuging by density gradient. Freshly isolated cells (1 × 10^6/mL) were perfused through the monolayer of endothelial cells (HUVEC) stimulated, or not, with TNFα for 24 h. In all the experiments the interactions of the leukocytes were determined after being perfused for 5 min at 0.5 dyne/cm^2. The HUVEC plates were placed in the flow chamber (GlycoTech, Gaithersburg, MD) and a camera was coupled to a phase-contrast inverted microscope (Axio Observer A1 Carl Zeiss microscope, Thornwood, NY) to view cell adhesion (20x lens and 10x eyepiece). In addition, the images were recorded on video for subsequent analysis.

ICAM-1 = assay: Flow cytometry of TNFα-induced ICAM-1 expression in HUVEC; format: cell-based, human; details: TNFα 20 ng/mL 24 h
Procedure: (§3) The cells were collected from the flasks using accutase (StemPro® Accutase® Cell Dissociation Reagent, ThermoFischer Scientific, Waltham, MA).
(§4) Then they were washed and incubated for 1 h with a APC-conjugated mAb antibody against human VCAM-1 (100 µg/mL; clone STA, BioLegend, San Diego, CA), a FITC- conjugated mAb against human ICAM-1 (400 µg/mL; clone HA58, BioLegend, San Diego, CA), a PE-conjugated mAb against human CX3CL1 (1.25 µg/mL; clone 51637, R&D Systems, Minneapolis, MN) or with a APC-conjugated mAb antibody against human CXCL16 (clone 256213, R&D Systems, Abingdon, UK), all at a dilution of 1:25 in 3% BSA/PBS. The samples were analyzed using a BD FACSVerse Flow Cytometer (BD Biosciences, San Jose, CA).

VCAM-1 = assay: Flow cytometry of TNFα-induced VCAM-1 expression in HUVEC; format: cell-based, human; details: TNFα 20 ng/mL 24 h
Procedure: as §3, §4

CX3CL1 = assay: Flow cytometry of TNFα-induced CX3CL1 (fractalkine) expression in HUVEC; format: cell-based
Procedure: as §3, §4

p38 MAPK = assay: Flow cytometry of TNFα-induced p38 MAPK phosphorylation in HUVEC; format: cell-based, human; details: TNFα 20 ng/mL 1 h
Procedure: (§5) HUVEC were previously incubated for 24 h with compound 1 (10 µM), for use according to the present invention, or with compound 9 (3 µM), of the invention, and stimulated for 1 h with TNFα (20 ng/mL). The endothelial cells were fixed with BD Cytofix Fixation Buffer (BD Biosciences, San Jose, CA) and permeabilized with BD Sol Perm III solution (BD Biosciences, San Jose, CA) and sequentially stained with a 1:10 dilution of a PE-conjugated mAb antibody against human p65 (pS529, clone K10-895.12.50; BD Biosciences, San Jose, CA) and a 1:10 dilution of Alexa Fluor-conjugated mAb antibody against human p38 MAPK ([…], clone 36/p38; BD Biosciences, San Jose, CA). The cells were analyzed with a BD FACSVerse flow cytometer (BD Biosciences, San Jose, CA).

NF-κB (p65) = assay: Flow cytometry of TNFα-induced p65 (NF-κB) phosphorylation in HUVEC; format: cell-based, human; details: TNFα 20 ng/mL 1 h
Procedure: as §5

[2] = ratio of IC50, mononuclear cell adhesion

C/C(=C\CCC1(C)CCc2cc(O)cc(C)c2O1)CC/C=C(\C)C(=O)O (centres unmarked) [Polycerasoidol, 1, polycerasoidol]
Emax (hPPARα; COS-7, read-out: hPPARα Efficacy (%)): 107% | Emax (hPPARγ; COS-7, read-out: hPPARγ Efficacy (%)): 95% | IC50 ([1]; Homo sapiens, HUVEC, pretreatment 20 h, TNFα 20 ng/mL 24 h, perfusion 5 min at 0.5 dyn/cm2, read-out: IC50 adhesion of HUVEC-mononuclear cells): 4900 nM | times less potent than rosiglitazone [1, 2]: 5 | inhibition of ICAM-1 expression induced by TNFα (ICAM-1; 10 µM, 20 h pretreatment): 23.8% | inhibition of VCAM-1 expression induced by TNFα (VCAM-1; 10 µM, 20 h pretreatment): 87.8% | reduced the expression of fractalkine (CX3CL1) (CX3CL1; 10 µM, TNFα 24 h): 77.6% | decrease of the activation of p38 MAPK (p38 MAPK; 10 µM): 63.4% | activation of NF-κB induced by TNFα (NF-κB (p65); 10 µM): inhibit significantly

CCOC(=O)CCC(C)=CCCC1(C)CCc2cc(OCc3ccc(F)cc3)ccc2O1 (centres unmarked) [Compound 9]
hPPARα Efficacy (%) (hPPARα; maximum activity as percentage of the maximum activity of WY-14643): 251% | EC50 (hPPARα; read-out: hPPARα EC50, Cos-7 cells, 24 h, tested 0.001 to 10 µM): 300 nM | hPPARγ Efficacy (%) (hPPARγ; maximum activity as percentage of the maximum activity of rosiglitazone): 57% | EC50 (hPPARγ; read-out: hPPARγ EC50, Cos-7 cells, 24 h, tested 0.001 to 10 µM): 400 nM | potency times greater than polycerasoidol [1, 2]: ~16 | potency times greater than rosiglitazone [1, 2]: approximately 3.6 | expression of ICAM-1 induced by TNFα (ICAM-1; 3 µM): but not ICAM-1 | expression of VCAM-1 induced by TNFα (VCAM-1; 3 µM): significant decrease | expression of CX3CL1 induced by TNFα (CX3CL1; 3 µM, TNFα 20 ng/mL 24 h): significant decrease | decrease of the activation of p38 MAPK (p38 MAPK; 3 µM): 71.9% | activation of NF-κB induced by TNFα (NF-κB (p65); 3 µM): inhibit significantly
